As a reminder, the Kd is a measure of binding affinity in units of concentration.

Data set [1] in a line: Ex vivo stability in plasma. It is filed as in vitro ADME. Particulars: rat plasma, in vitro, 37 °C, HPLC, log-linear regression; mean ± SEM of three biological replicates; read-out: t1/2, half-life in plasma (converted). As to the method: The samples were collected into pre-chilled tubes containing 1 mL of acidic acetone (hydrochloric acid/acetone/H2O, 1:40:5, by volume). Subsequently, the mixture was centrifuged at 2 × 10^4 rpm at 4 °C for 20 min. The precipitates were dried in vacuo. The dried precipitates were dissolved in 0.5 mL of 1 M acetic acid. The peptide analysis was carried out according to the protocol for the study of Tα1 using HPLC [51]. The half-lives of the target peptides were calculated by a logarithm-linear regression analysis of the peptide concentrations.

The subject of data set [2] is peritoneal macrophages. The data set is described as follows: Peritoneal macrophage phagocytosis (neutral red uptake) in CTX-immunosuppressed mice. The format is in vivo, mouse. Particulars: peritoneal macrophages of mice, OD 540 nm, CTX 80 mg/kg ip days 1-3, peptide 10 mg/kg ip days 4-10, control group 55.67%, n = 12.
Experimental: For the first 3 days, CTX (80 mg/kg mouse weight) was administered intraperitoneally once daily to establish the immunosuppressed animal model. From days 4 to 10 (7 days), peptides (10 mg/kg mouse weight) were administered intraperitoneally each day. The CTX group was only treated with CTX, and the control group was given sterile saline. The dose volume was 200 μL. Twenty-four hours after the last dose, the mice were killed and their tissues and blood collected for analysis.
Peritoneal macrophages were aseptically obtained from the different groups of mice by peritoneal lavage with 5 mL ice-cold phosphate-buffered saline (PBS). The peritoneal macrophages were further isolated by incubating peritoneal exudate cells at 37 °C in a moist atmosphere (5% CO2, 95% air) for 3 h to allow the cells to adhere. The adherent cells were washed twice and collected as peritoneal macrophages.
The phagocytic capacity of the peritoneal macrophages was measured by the neutral red uptake method [52]. […] The OD was measured using a microplate reader at 540 nm. The phagocytic rate was calculated in the following way:(4) hagocytic rate (%)=OD540(sample)/OD540(control) ×100% where OD540 (sample) is the absorbance at 540 nm by peptide-treated cells and OD540 (control) is the absorbance at 540 nm by the cells without peptides treated.
For data set [3], the target named is T1, recombinant TLR4/MD2 complex (UniProt Q9QUK6 26-638; Q9JHF9 19-160).
T1 construct: Toll-like receptor 4 (TLR4) of the recombinant TLR4/MD2 complex; MD-2 (MD2, lymphocyte antigen 96) of the recombinant TLR4/MD2 complex; source: bought: R&D Systems
T1 sequence (looked up) 1: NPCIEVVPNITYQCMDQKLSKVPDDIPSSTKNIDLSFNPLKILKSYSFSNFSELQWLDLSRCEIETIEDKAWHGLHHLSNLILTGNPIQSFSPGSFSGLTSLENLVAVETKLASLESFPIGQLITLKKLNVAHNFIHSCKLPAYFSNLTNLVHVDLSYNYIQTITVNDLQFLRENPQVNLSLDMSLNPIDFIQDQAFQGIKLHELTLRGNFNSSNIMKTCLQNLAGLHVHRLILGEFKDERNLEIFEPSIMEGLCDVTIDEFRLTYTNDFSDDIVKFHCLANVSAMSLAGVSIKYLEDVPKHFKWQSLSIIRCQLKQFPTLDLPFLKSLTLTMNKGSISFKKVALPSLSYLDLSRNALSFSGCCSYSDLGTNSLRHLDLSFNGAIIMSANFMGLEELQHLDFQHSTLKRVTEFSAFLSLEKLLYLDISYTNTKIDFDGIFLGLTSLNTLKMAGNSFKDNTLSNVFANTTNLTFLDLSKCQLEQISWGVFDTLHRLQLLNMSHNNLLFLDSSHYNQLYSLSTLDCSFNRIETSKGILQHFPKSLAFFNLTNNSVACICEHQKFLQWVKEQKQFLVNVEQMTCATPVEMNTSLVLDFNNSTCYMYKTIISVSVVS
T1 sequence (looked up) 2: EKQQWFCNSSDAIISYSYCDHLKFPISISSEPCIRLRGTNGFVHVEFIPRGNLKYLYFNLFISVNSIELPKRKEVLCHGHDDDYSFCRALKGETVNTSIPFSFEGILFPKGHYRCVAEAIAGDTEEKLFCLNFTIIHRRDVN
The data set is described as follows: SPR; TLR4/MD2 immobilised by amino coupling on a ProteOn GLH chip (ProteOn XPR36); LTAa passed over at 0, 1.25, 2.5, 5 and 10 μM (methods print mM); 25 °C; PBS with 0.1% Tween 20 and 2% DMSO; 30 μL/min; global fit, homogeneous 1:1 model. Particulars: both partners purified.

`CC[C@H](C)[C@H](NC(=O)[C@H](CCCCN)NC(=O)[C@H](CCC(=O)O)NC(=O)[C@H](CCCCN)NC(=O)[C@H](CO)NC(=O)[C@H](CCCCN)NC(=O)[C@H](CCCNC(=N)N)NC(=O)[C@H](Cc1ccccc1)NC(=O)[C@H](Cc1ccccc1)NC(=O)[C@H](CC(=O)O)NC(=O)CNC(=O)[C@H](CC(C)C)NC(=O)[C@@H](N)CC(C)C)C(=O)NCC(=O)N[C@@H](CCCCN)C(=O)N[C@@H](CCC(=O)O)C(=O)N[C@@H](Cc1ccccc1)C(=O)N[C@@H](CCCCN)C(=O)N[C@@H](CCCNC(=N)N)C(=O)N[C@H](C(=O)N[C@H](C(=O)N[C@@H](CCC(N)=O)C(=O)N[C@@H](CCCNC(=N)N)C(=O)N[C@H](C(=O)N[C@@H](CCCCN)C(=O)N[C@@H](CC(=O)O)C(=O)N[C@@H](Cc1ccccc1)C(=O)N[C@@H](CC(C)C)C(=O)N[C@@H](CCCNC(=N)N)C(=O)N[C@@H](CC(N)=O)C(=O)N[C@@H](CC(C)C)C(=O)N[C@H](C(=O)N1CCC[C@H]1C(=O)N[C@@H](CCCNC(=N)N)C(=O)N[C@H](C(=O)N[C@@H](CCC(=O)O)C(=O)N[C@@H](CO)C(=O)O)[C@@H](C)O)C(C)C)[C@@H](C)CC)C(C)C)[C@@H](C)CC` [LL-37]: the half-life in data set [1] is 3.1 ± 0.87 h.

The molecule `O=P1(N(CCCl)CCCl)NCCCO1` (stereo not drawn) [CTX, cyclophosphamide, reference compound] registered a macrophage phagocytic rate in data set [2] of 31.93%.

B1: LL-37-Tα1a hybrid peptide (LTAa) (peptide)
peptide: IGKEFKRIVQRIKDFLRNLVPRTEKEKKEVVE
notes: LL-37, human cationic host-defense peptide, residues 13-36; Thymosin alpha-1 (Tα1), residues 17-24 (Tα1a); (32 residues); source: synthetic peptide (solid-phase, KangLong Biochemistry; purity >95%)
Regarding B1, the Kd in data set [3] stood at 0.0491 nM.

The values above are taken from paper PMC6940896, “Development of a Highly Efficient Hybrid Peptide That Increases Immunomodulatory Activity Via the TLR4-Mediated Nuclear Factor-κB Signaling Pathway” (International Journal of Molecular Sciences, 2019).
